Measured values as given in patent US20260116867A1, “PROTEOLYSIS TARGETING CHIMERAS FOR HUMAN PREGNANE X RECEPTOR AND FOR DEGRADATION OF GSPT1” (ST. JUDE CHILDREN'S RESEARCH HOSPITAL, priority 2022, published 2026).

Assays:
PXR [1] = target: T1, PXR (Homo sapiens, UniProt O75469); test: hPXR binding assay; details: for inhibition at 10 µM: read-out: Binding (% inhibition at 10 μM)
T1 sequence (O75469 1-434): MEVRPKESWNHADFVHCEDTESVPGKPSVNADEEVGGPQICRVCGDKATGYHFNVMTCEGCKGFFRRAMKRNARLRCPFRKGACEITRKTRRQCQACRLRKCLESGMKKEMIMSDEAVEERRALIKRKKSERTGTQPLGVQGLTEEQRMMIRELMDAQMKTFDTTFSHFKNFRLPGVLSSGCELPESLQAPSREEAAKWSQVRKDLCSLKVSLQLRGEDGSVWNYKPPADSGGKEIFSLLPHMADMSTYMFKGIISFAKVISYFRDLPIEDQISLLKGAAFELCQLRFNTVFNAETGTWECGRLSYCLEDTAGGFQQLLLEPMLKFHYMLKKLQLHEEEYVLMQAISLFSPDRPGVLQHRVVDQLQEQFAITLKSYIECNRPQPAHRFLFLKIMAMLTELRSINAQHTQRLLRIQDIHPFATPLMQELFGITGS

PXR [2] = target: T1, PXR; test: cell-based hPXR inverse agonistic assay; details: for inhibition at 10 µM: read-out: Inverse agonist (% inhibition at 10 μM); for IC50: read-out: Inverse agonist (IC50/μM)
PXR [3] = target: T1, PXR; test: cell-based hPXR antagonistic assay; details: for inhibition at 10 µM: read-out: Antagonist (% inhibition at 10 μM); for IC50: read-out: Antagonist (IC50/μM)

| Structure (SMILES) | IC50 (PXR [1]) [µM] | inhibition at 10 µM (PXR [1]) [%] | inhibition at 10 µM (PXR [2]) [%] | IC50 (PXR [2]) [µM] | inhibition at 10 µM (PXR [3]) [%] | IC50 (PXR [3]) [µM] |
| --- | --- | --- | --- | --- | --- | --- |
| COc1ccc(OC)c(-n2nnc(C(=O)Nc3cc(Nc4cccc5c4C(=O)N(C4CCC(=O)NC4=O)C5=O)cc(C(C)(C)C)c3)c2C)c1 (stereo not drawn) [Compound M5, N-(3-(tert-butyl)-5-((2-(2,6-dioxopiperidin-3-yl)-1,3-dioxoisoindolin-4-yl)amino)phenyl)-1-(2,5-dimethoxyphenyl)-5-methyl-1H-1,2,3-triazole-4-carboxamide] | 0.083 ± 0.0041 | 69 | 141 | 0.0078 ± 0.002 | 107 | 0.052 ± 0.0066 |
| COc1ccc(OC)c(-n2nnc(C(=O)Nc3cc(OCCCCNc4cccc5c4CN(C4CCC(=O)NC4=O)C5=O)cc(C(C)(C)C)c3)c2C)c1 (stereo not drawn) [Compound M14, N-(3-(tert-butyl)-5-(4-((2-(2,6-dioxopiperidin-3-yl)-1-oxoisoindolin-4-yl)amino)butoxy)phenyl)-1-(2,5-dimethoxyphenyl)-5-methyl-1H-1,2,3-triazole-4-carboxamide] | 0.13 ± 0.051 | 22 | 94 | 0.43 ± 0.14 | 82 | 1.86 ± 0.53 |
| COc1ccc(OC)c(-n2nnc(C(=O)Nc3cc(NC(=O)COCCOCCOCCOCCNc4cccc5c4C(=O)N(C4CCC(=O)NC4=O)C5=O)cc(C(C)(C)C)c3)c2C)c1 (stereo not drawn) [Compound M17, N-(3-(tert-butyl)-5-(14-((2-(2,6-dioxopiperidin-3-yl)-1,3-dioxoisoindolin-4-yl)amino)-3,6,9,12-tetraoxatetradecanamido)phenyl)-1-(2,5-dimethoxyphenyl)-5-methyl-1H-1,2,3-triazole-4-carboxamide] | – | – | 84 | 1.98 ± 0.25 | 70 | – |
| COc1ccc(OC)c(-n2nnc(C(=O)Nc3cc(OCCCCN4C(=O)CCC(N5Cc6c(N)cccc6C5=O)C4=O)cc(C(C)(C)C)c3)c2C)c1 (stereo not drawn) [Compound N4, N-(3-(4-(3-(4-amino-1-oxoisoindolin-2-yl)-2,6-dioxopiperidin-1-yl)butoxy)-5-(tert-butyl)phenyl)-1-(2,5-dimethoxyphenyl)-5-methyl-1H-1,2,3-triazole-4-carboxamide] | 0.087 ± 0.022 | 37 | 97 | 0.044 ± 0.008 | 103 | 0.17 ± 0.0045 |
| COc1ccc(OC)c(-n2nnc(C(=O)Nc3cc(OCCOCCOCCOCCOCCOCCN4C(=O)CCC(N5C(=O)c6cccc(N)c6C5=O)C4=O)cc(C(C)(C)C)c3)c2C)c1 (stereo not drawn) [Compound N7, N-(3-((17-(3-(4-amino-1,3-dioxoisoindolin-2-yl)-2,6-dioxopiperidin-1-yl)-3,6,9,12,15-pentaoxaheptadecyl)oxy)-5-(tert-butyl)phenyl)-1-(2,5-dimethoxyphenyl)-5-methyl-1H-1,2,3-triazole-4-carboxamide] | 0.43 ± 0.027 | 48 | 36 | 1.12 ± 0.3 | 83 | 0.52 ± 0.095 |
